Laboratory results taken from patent publication US20230295109A1, “PYRIDINONE COMPOUNDS FOR THE TREATMENT OF AUTOIMMUNE DISEASE” (F. Hoffmann-La Roche AG, priority 2020, published 2023).

How the values were obtained:
human TLR7 = target: T1, human TLR7 (Homo sapiens, UniProt Q9NYK1); assay: HEK293-Blue-hTLR-7 cells assay; format: cell-based; details: HEK293-Blue-hTLR7 cells, R848 stimulation, 20 hrs, SEAP reporter; read-out: HEK/hTLR7 IC50
T1 construct: host or cells: HEK293 (HEK-Blue hTLR7)
T1 sequence (Q9NYK1 27-1049): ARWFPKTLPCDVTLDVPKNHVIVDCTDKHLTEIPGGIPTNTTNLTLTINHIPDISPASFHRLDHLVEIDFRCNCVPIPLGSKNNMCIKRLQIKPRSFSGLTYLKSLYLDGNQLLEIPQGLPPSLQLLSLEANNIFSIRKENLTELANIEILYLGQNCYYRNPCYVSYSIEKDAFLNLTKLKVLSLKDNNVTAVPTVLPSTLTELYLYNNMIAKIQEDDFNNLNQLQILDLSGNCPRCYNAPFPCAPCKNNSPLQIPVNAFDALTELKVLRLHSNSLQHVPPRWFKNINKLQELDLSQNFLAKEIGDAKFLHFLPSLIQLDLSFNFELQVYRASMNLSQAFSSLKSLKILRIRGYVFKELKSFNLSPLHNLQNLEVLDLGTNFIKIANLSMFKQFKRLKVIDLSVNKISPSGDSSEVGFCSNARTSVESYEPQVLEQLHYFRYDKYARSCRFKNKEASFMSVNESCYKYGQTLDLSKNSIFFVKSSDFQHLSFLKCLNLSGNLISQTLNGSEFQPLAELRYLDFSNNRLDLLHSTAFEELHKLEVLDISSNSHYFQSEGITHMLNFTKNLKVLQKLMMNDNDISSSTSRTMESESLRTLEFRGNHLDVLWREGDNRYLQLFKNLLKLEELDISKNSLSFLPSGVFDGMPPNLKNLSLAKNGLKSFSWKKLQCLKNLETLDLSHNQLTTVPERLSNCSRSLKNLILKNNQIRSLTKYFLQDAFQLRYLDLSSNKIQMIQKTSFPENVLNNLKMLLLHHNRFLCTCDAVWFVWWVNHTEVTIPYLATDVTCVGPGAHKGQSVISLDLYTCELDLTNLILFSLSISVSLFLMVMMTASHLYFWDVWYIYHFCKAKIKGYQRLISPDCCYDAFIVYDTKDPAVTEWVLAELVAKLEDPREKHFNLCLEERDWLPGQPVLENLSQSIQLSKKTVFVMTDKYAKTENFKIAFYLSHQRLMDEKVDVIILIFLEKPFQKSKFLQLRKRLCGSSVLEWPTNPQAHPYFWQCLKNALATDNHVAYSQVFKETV
Description: A stable HEK293-Blue-hTLR-7 cell line was purchased from InvivoGen (Cat.#: hkb-htlr7, San Diego, California, USA). These cells were originally designed for studying the stimulation of human TLR7 by monitoring the activation of NF-κB. A SEAP (secreted embryonic alkaline phosphatase) reporter gene was placed under the control of the IFN-β minimal promoter fused to five NF-κB and AP-1-binding sites. The SEAP was induced by activating NF-κB and AP-1 via stimulating HEK-Blue hTLR7 cells with TLR7 ligands. Therefore the reporter expression was declined by TLR7 antagonist under the stimulation of a ligand, such as R848 (Resiquimod), for incubation of 20 hrs. The cell culture supernatant SEAP reporter activity was determined using QUANTI-Blue™ kit (Cat.#: rep-qb1, Invivogen, San Diego, Ca, USA) at a wavelength of 640 nm, a detection medium that turns purple or blue in the presence of alkaline phosphatase.
HEK293-Blue-hTLR7 cells were incubated at a density of 250,000~450,000 cells/mL in a volume of 170 µL in a 96-well plate in Dulbecco’s Modified Eagle’s medium (DMEM) containing 4.5 g/L glucose, 50 U/mL penicillin, […], […], 2 mM L-glutamine, 10% (v/v) heat-inactivated fetal bovine serum with addition of 20 µL test compound in a serial dilution in the presence of final DMSO at 1% and 10 µL of 20uM R848 in above DMEM, perform incubation under 37° C. in a CO2 incubator for 20 hrs. Then 20 µL of the supernatant from each well was incubated with 180 µL Quanti-blue substrate solution at 37° C. for 2 hrs and the absorbance was read at 620 \~655 nm using a spectrophotometer. The signaling pathway that TLR7 activation leads to downstream NF-κB activation has been widely accepted, and therefore similar reporter assay was modified for evaluating TLR7 antagonist.

[1] = Human microsome stability assay; format: in vitro ADME; details: 1 µM test compound, 0.5 mg/mL liver microsomal protein, 37° C., pH 7.4
Description: The human microsomal stability assay is used for early assessment of metabolic stability of a test compound in human liver microsomes.
Human liver microsomes (Cat.NO.: 452117, Corning, USA;Cat.NO.:H2610, Xenotech, USA) were preincubated with test compound for 10 minutes at 37° C. in 100 mM potassium phosphate buffer, pH 7.4. The reactions were initiated by adding NADPH regenerating system. The final incubation mixtures contained 1 µM test compound, 0.5 mg/mL liver microsomal protein, 1 mM MgCl2, 1 mM NADP, 1 unit/mL isocitric dehydrogenase and 6 mM isocitric acid in 100 mM potassium phosphate buffer, pH 7.4. After incubation times of 0, 3, 6, 9, 15 and 30 minutes at 37° C., 300 µL of cold acetonitrile (including internal standard) was added to 100 µL incubation mixture to terminate the reaction. Following precipitation and centrifugation, the amount of compound remaining in the samples were determined by LC-MS/MS. Controls of no NADPH regenerating system at zero and 30 minutes were also prepared and analyzed.

Compound	IC50 (human TLR7) [nM]	Clearance of Human microsome [1] [mL/min/kg]
Cc1cc(-c2ccc(N3CCN(Cc4ccc(N5CCNCC5)cn4)CC3)nc2C(C)C)cn(C)c1=O [Example 7, 5-[2-isopropyl-6-[4-[(5-piperazin-1-yl-2-pyridyl)methyl]piperazin-1-yl]-3-pyridyl]-1,3-dimethyl-pyridin-2-one]	5	7.4
Cc1cc(-c2ccc(N3CCN(Cc4cnc(N5CCNCC5)cn4)CC3)nc2C(C)C)cn(C)c1=O [Example 8, 5-[2-isopropyl-6-[4-[(5-piperazin-1-ylpyrazin-2-yl)methyl]piperazin-1-yl]-3-pyridyl]-1,3-dimethyl-pyridin-2-one]	5	8.3
Cc1cc(-c2ccc(N3CCN(Cc4cnc(N5CCNCC5)nc4)CC3)nc2C(C)C)cn(C)c1=O [Example 9, 5-[2-isopropyl-6-[4-[(2-piperazin-1-ylpyrimidin-5-yl)methyl]piperazin-1-yl]-3-pyridyl]-1,3-dimethyl-pyridin-2-one]	7	7.8
Cc1cc(-c2ccc(N3CCN(Cc4ncc(N5CCNCC5)cn4)CC3)nc2C(C)C)cn(C)c1=O [Example 12, 5-[2-isopropyl-6-[4-[(5-piperazin-1-ylpyrimidin-2-yl)methyl]piperazin-1-yl]-3-pyridyl]-1,3-dimethyl-pyridin-2-one]	8	8.8
Cc1cc(-c2ccc(N3CCN(Cc4cccc(N5CCNCC5)c4)CC3)nc2C(C)C)cn(C)c1=O [Example 14, 5-[2-isopropyl-6-[4-[(3-piperazin-1-ylphenyl)methyl]piperazin-1-yl]-3-pyridyl]-1,3-dimethyl-pyridin-2-one]	18	8.3
Cc1cc(-c2ccc(N3CCN(c4ccc5c(n4)CCNC5)CC3)nc2C(C)C)cn(C)c1=O [Example 15, 5-[2-isopropyl-6-[4-(5,6,7,8-tetrahydro-1,6-naphthyridin-2-yl)piperazin-1-yl]-3-pyridyl]-1,3-dimethyl-pyridin-2-one]	10	8.7
Cc1cc(-c2ccc(N3CCN(Cc4ccc(N5CCNCC5)cc4)CC3)nc2C(F)F)cn(C)c1=O [Example 17, 5-[2-(difluoromethyl)-6-[4-[(4-piperazin-1-ylphenyl)methyl]piperazin-1-yl]-3-pyridyl]-1,3-dimethyl-pyridin-2-one]	33	8.5
Cc1cc(-c2ccc(N3CCC(N4CCNCC4)CC3)nc2C(C)C)cn(C)c1=O [Example 18, 5-[2-isopropyl-6-(4-piperazin-1-yl-1-piperidyl)-3-pyridyl]-1,3-dimethyl-pyridin-2-one]	5	7.5
